Data: ChEMBL document CHEMBL1121712, “Permethyl analogue of the pyrrolic antibiotic distamycin A” (J Med Chem, 1981)

Legend:
Mus musculus = species on record: Mus musculus; experiment: Mean survival time at a dose of 25 ug/mL in mouse fibroblasts and Maloney sarcoma transplanted 3T3 fibroblasts by using Rane assay; Nontoxic; format: functional, organism-based
Plasmodium berghei = experiment: Mean survival time in blood schizonticidal screen against Plasmodium berghei at 640 mg/kg by Rane assay; Non-toxic; format: functional, organism-based; design: dose 640 mg/kg
[1] = Dissociation constant was determined; format: physicochemical

| pKa [1] | SMILES | Mean survival time (Mus musculus) | Mean survival time (Plasmodium berghei) |
| --- | --- | --- | --- |
| – | Cc1c(NC=O)c(C)n(C)c1C(=O)NCCC(=N)N | Non-toxic | Non-toxic |
| – | Cc1c(NC=O)c(C)n(C)c1C(=O)Nc1c(C)c(C(=O)NCCC(=N)N)n(C)c1C | Non-toxic | Non-toxic |
| 5.5 | Cc1c([N+](=O)[O-])c(C)n(C)c1C(=O)O | – | – |
